From patent EP0626943B1, “BISTRIAZENES AS CHEMOTHERAPEUTIC AGENTS” (THE GOVERNMENT OF THE UNITED STATES OF AMERICA as …, priority 1991, dated 1993)
Where two headings read alike, the source gives them in different places. Each block holds one molecule with its values, some of them ahead of it.

Tests used:
human tumor cell lines = assay: Clonogenic assay against a panel of human tumor cells (Figures 1-4); format: cell-based; conditions: for cytotoxicity, overall statement: clonogenic assay, no concentration given
Description: Clonogenic Assay. The response of a variety of human tumor cell lines to bistriazenes was determined via the clonogenic assay described in Fiebig et al. (1987) European Journal of Cancer and Clinical Oncology 23: 937-948.
(§1) Briefly, the assay system consists of a modified, two-layer soft agar culture system. The bottom layer consists of 1 ml of modified Dulbecco medium supplemented with L-glutamine, containing 10% fetal calf serum and 0.5% agar, in a 35 mm petri-dish. The upper layer contains 2-5 x 10^5 viable human tumor cells suspended in a 1 ml volume, consisting of 0.3% agar, 30% fetal calf serum, and the medium. The drugs to be tested, contained in 1 ml of medium containing 30% fetal calf serum, are included in the upper layer. Control plates are identical, except for the omission of the drugs. The plates are incubated at 37°C in a humidified atmosphere containing 7% carbon dioxide for varying periods (7-21 days). The time in culture is determined by the rate of colony formation in the control plates. At the end of the culture period, the number of colonies in the drug treated cultures is compared to the number of colonies in the control plates, after visualization of the live colonies by staining with tetrazolium chloride.
The tumors included those derived from colon cancer, three types of lung cancer, mammary cancer, ovarian cancer, two types of kidney cancer, a mesothelioma, a gastric cancer, and a sarcoma. These tumors represent some of the most important cancers for which current treatments are inadequate. For comparison, the assays of the various bistriazenes were compared to the response induced in the same tumors by DTIC, a drug employed in clinical practice.

[1] = test system: 32P-endlabeled oligonucleotide; assay: Oligonucleotide crosslinking assay; format: biochemical; conditions: 37°C, 42 hours, pH 7.4
Description: A solution of 6.2 ng of ^32P-endlabeled oligonucleotide in 0.1 M cacodylic acid buffer (0.1 M NaCl, pH 7.4) was allowed to react with the desired compound dissolved in 1/10 volume DMSO. Final concentrations of the compounds in the oligonucleotide solution were 0.1 mM NMUST, 1.0 mM CCNU, or 10 mM bistriazene. Reactions were incubated at 37°C for 42 hours, and analyzed by denaturing polyacrylamide gel electrophoresis (20% gel) followed by autoradiography. the gels were intentionally overexposed to better visualize bands corresponding to interstrand crosslinks. Large amounts of unreacted oligonucleotides were also visualized under these conditions.

PRCL DU145X = assay: Clonogenic assay (two-layer soft agar culture); format: cell-based; conditions: Homo sapiens, read-out: Test/Control (%) at Drug Concentration (µg/ml)
Description: as §1

RXF 1220 = assay: Clonogenic assay (two-layer soft agar culture); format: cell-based; conditions: Homo sapiens, read-out: Test/Control (%) at Drug Concentration (µg/ml)
Description: as §1

LXFL 529 = assay: Clonogenic assay (two-layer soft agar culture); format: cell-based; conditions: Homo sapiens
Description: as §1

[2] = Solubility observed on isolation; format: physicochemical
Description: A solution of 3.95 g (25 mmoles) of 2-bromopyridine in 20 ml of dry pentane was added dropwise to 10 ml. of 2.5M butylithium in hexane at -78°C. To the resulting yellow slurry was added dropwise with stirring 1.75 g (12.5 mmoles) of 1,4-diazidobutane in 10 ml. of pentane. Stirring was continued for 2 hr. at -78° and then the reaction mixture was allowed to warm to room temperature. The reaction mixture was treated with 60 ml. of ammonium buffer which caused a precipitate to appear after the reaction was cooled to -78°C. The solid was filtered off. […] The yield was 2.3 g., m.p. 133-136. Spectroscopic data were consistent with the structure.
A solution of butyllithium in hexane (5 ml., 2.5M) was dissolved in 10 ml. of tetrahydrofuran and cooled to -78°C. To this was added dropwise with stirring a solution of 1.98 g (12.5 mmoles) of 2-bromopyridine in 10 ml. of tetrahydrofuran. The dark yellow solution of the pyridine anion was mixed with a solution of 0.70 g (6.2 mmoles) of 1,2-diazidoethane in 10 ml. of tetrahydrofuran at -78°C. After 1 hr. of stirring the dark green solution was treated with 10 ml. of ammonium buffer. The color changed to yellow. The organic solvent was removed in vacuo, and the precipitate was isolated by filtration and washed with copious quantities of diethylether. The powdery material was finally dried under high vacuum. The yield was 770 mg. […] The spectra, however, were fully consistent with the structure.

[3] = 1 ug/ml, panel of human tumor cell lines
[4] = 10 ug/ml, panel of human tumor cell lines
[5] = 100 ug/ml, panel of human tumor cell lines
[6] = LXFL 529, read-out: Test/Control (%) at Drug Concentration (µg/ml)
[7] = 1.0 µg/ml, PRCL DU145X prostate carcinoma
[8] = 10.0 µg/ml, PRCL DU145X prostate carcinoma
[9] = 100.0 µg/ml, PRCL DU145X prostate carcinoma
[10] = 1.0 µg/ml, RXF 1220 renal carcinoma
[11] = 10.0 µg/ml, RXF 1220 renal carcinoma
[12] = 100.0 µg/ml, RXF 1220 renal carcinoma
[13] = 1.0 µg/ml, LXFL 529 large cell lung cancer line, read-out: Test/Control (%) at Drug Concentration (µg/ml)
[14] = 10.0 µg/ml, LXFL 529 large cell lung cancer line, read-out: Test/Control (%) at Drug Concentration (µg/ml)
[15] = 100.0 µg/ml, LXFL 529 large cell lung cancer line, read-out: Test/Control (%) at Drug Concentration (µg/ml)

SMILES: CNN=NC/C=C/CN=NNC [1,4-bis(methyltriazeno)-trans-2-butene, 1,4-Bis(methyltriazeno)-trans-2-butene]
cytotoxic activity (human tumor cell lines; [3]): still significant activity against the lung cancer
cytotoxic activity (human tumor cell lines; [4]): activity persisted at 10 ug/ml, especially for the large cell lung carcinoma LXFL529 and the renal cancer RXF423/17
cytotoxic activity (human tumor cell lines; [5]): potent cytotoxic activity against all the tumors tested
cytotoxicity, overall statement (human tumor cell lines): highly potent against several tumors, especially the large cell lung carcinoma
interstrand crosslinking of oligonucleotides ([1]; 10 mM bistriazene): produce stable crosslinked species in oligonucleotides

SMILES: O=P1(N(CCCl)CCCl)NC(OO)CCO1 (stereo not shown) [CYCM, 4-hydroperoxycyclophosphamide, reference compound]
activity at 1 µg/mL (PRCL DU145X): 108%
activity at 10 µg/mL (PRCL DU145X): 90%
activity at 100 µg/mL (PRCL DU145X): 47%
activity at 1 µg/mL (RXF 1220): 67%
activity at 10 µg/mL (RXF 1220): 51%
activity at 100 µg/mL (RXF 1220): 9%
activity at 1 µg/mL (LXFL 529; [6]): 115%
activity at 10 µg/mL (LXFL 529; [6]): 94%
activity at 100 µg/mL (LXFL 529; [6]): 19%

SMILES: CNN=NCCN=NNC [bis(methyltriazeno)ethane, 1,2-Bis(methyltriazeno)ethane]
cytotoxic activity (human tumor cell lines; [4]): only marginal, but significant, activity was seen in the large cell lung cancer and in the mammary cancer
cytotoxic activity (human tumor cell lines; 100 ug/ml, mesothelioma, gastric carcinoma, renal cancer RXF 423/17): Relatively little or no activity
cytotoxic activity (human tumor cell lines; [5]): highly cytotoxic at 100 ug/ml to most of the tumor cell lines

SMILES: CNN=NCc1ccc(CN=NNC)cc1 [bis(methyltriazeno)-p-xylene, 1,4-Bis(methyltriazenomethyl)benzene]
cytotoxic activity (human tumor cell lines; [3]): Some activity was also evident at a dose of 1 ug/ml in about half the cell lines
cytotoxic activity (human tumor cell lines; [4]): toxicity against approximately half of the cell lines examined
cytotoxic activity (human tumor cell lines; [5]): highly toxic to all tumor cell lines
interstrand crosslinking of oligonucleotides ([1]; 10 mM bistriazene, listed as p-xylyl): produce stable crosslinked species in oligonucleotides
interstrand crosslinking of oligonucleotides ([1]; 10 mM bistriazene, listed as p-xylyl bistriazene): stably covalently crosslinked

SMILES: CN(C)N=Nc1[nH]cnc1C(N)=O [DTIC, 5-(3,3-dimethyltriazeno)imidazole-4-carboxamide, reference compound]
cytotoxic activity (human tumor cell lines; 3 ug/ml, panel of human tumor cell lines): marginal activity against the gastric cancer
cytotoxic activity (human tumor cell lines; 30 ug/ml, panel of human tumor cell lines): activity against the gastric carcinoma GXF251/16 and the ovarian cancer OVXF899/9
cytotoxic activity (human tumor cell lines; 300 ug/ml, panel of human tumor cell lines): potently cytotoxic on all cell lines
activity at 1 µg/mL (PRCL DU145X; [7]): 70%
activity at 10 µg/mL (PRCL DU145X; [8]): 44%
activity at 100 µg/mL (PRCL DU145X; [9]): 43%
activity at 1 µg/mL (RXF 1220; [10]): 54%
activity at 10 µg/mL (RXF 1220; [11]): 44%
activity at 100 µg/mL (RXF 1220; [12]): 24%
activity at 1 µg/mL (LXFL 529; [13]): 63%
activity at 10 µg/mL (LXFL 529; [14]): 35%
activity at 100 µg/mL (LXFL 529; [15]): 8%

solubility ([2]; dimethylsulfoxide): sparingly soluble
SMILES: c1ccc(NN=NCCCCN=NNc2ccccn2)nc1 [compound 14, 1,4-Bis(2-pyridyltriazeno)butane]
solubility ([2]; common solvents): poorly soluble in common solvents such as halomethanes, acetone, methanol and water

SMILES: c1cncc(N=NNCCNN=Nc2cccnc2)c1 [Example 1a, bis(3-pyridyltriazeno)ethane]
cytotoxicity, overall statement (human tumor cell lines): potently cytotoxic
activity at 1 µg/mL (PRCL DU145X; [7]): 84%
activity at 10 µg/mL (PRCL DU145X; [8]): 44%
activity at 100 µg/mL (PRCL DU145X; [9]): 0%
activity at 1 µg/mL (RXF 1220; [10]): 99%
activity at 10 µg/mL (RXF 1220; [11]): 74%
activity at 100 µg/mL (RXF 1220; [12]): 4%
activity at 1 µg/mL (LXFL 529; [13]): 51%
activity at 10 µg/mL (LXFL 529; [14]): 0%
activity at 100 µg/mL (LXFL 529; [15]): 0%

SMILES: O=NN(CCCl)C(=O)NC1CCCCC1 [CCNU, 1-(2-chloroethyl)-3-cyclohexyl-1-nitrosourea, reference compound]
interstrand crosslinking of oligonucleotides ([1]; 1.0 mM CCNU): not as effective at forming crosslinks as the p-xylyl bistriazene derivative

SMILES: c1ccc(NN=NCCN=NNc2ccccn2)nc1 [compound 15, 1,2-Bis(2-pyridyltriazeno)ethane]
solubility ([2]; common solvents): not soluble in most solvents, except dimethylsulfoxide

SMILES: c1cncc(N=NNCCCCNN=Nc2cccnc2)c1 [Example 1b]
cytotoxicity, overall statement (human tumor cell lines): potently cytotoxic
activity at 1 µg/mL (PRCL DU145X; [7]): 94%
activity at 10 µg/mL (PRCL DU145X; [8]): 62%
activity at 100 µg/mL (PRCL DU145X; [9]): 4%
activity at 1 µg/mL (RXF 1220; [10]): 82%
activity at 10 µg/mL (RXF 1220; [11]): 70%
activity at 100 µg/mL (RXF 1220; [12]): 8%
activity at 1 µg/mL (LXFL 529; [13]): 71%
activity at 10 µg/mL (LXFL 529; [14]): 1%
activity at 100 µg/mL (LXFL 529; [15]): 1%
